The text below walks through data of patent publication US10975084B2, “KDM5 inhibitors” (Merck Sharp & Dohme Corp., priority 2016, dated 2021).

KDM5B, sequence (Q9UGL1 whole entry): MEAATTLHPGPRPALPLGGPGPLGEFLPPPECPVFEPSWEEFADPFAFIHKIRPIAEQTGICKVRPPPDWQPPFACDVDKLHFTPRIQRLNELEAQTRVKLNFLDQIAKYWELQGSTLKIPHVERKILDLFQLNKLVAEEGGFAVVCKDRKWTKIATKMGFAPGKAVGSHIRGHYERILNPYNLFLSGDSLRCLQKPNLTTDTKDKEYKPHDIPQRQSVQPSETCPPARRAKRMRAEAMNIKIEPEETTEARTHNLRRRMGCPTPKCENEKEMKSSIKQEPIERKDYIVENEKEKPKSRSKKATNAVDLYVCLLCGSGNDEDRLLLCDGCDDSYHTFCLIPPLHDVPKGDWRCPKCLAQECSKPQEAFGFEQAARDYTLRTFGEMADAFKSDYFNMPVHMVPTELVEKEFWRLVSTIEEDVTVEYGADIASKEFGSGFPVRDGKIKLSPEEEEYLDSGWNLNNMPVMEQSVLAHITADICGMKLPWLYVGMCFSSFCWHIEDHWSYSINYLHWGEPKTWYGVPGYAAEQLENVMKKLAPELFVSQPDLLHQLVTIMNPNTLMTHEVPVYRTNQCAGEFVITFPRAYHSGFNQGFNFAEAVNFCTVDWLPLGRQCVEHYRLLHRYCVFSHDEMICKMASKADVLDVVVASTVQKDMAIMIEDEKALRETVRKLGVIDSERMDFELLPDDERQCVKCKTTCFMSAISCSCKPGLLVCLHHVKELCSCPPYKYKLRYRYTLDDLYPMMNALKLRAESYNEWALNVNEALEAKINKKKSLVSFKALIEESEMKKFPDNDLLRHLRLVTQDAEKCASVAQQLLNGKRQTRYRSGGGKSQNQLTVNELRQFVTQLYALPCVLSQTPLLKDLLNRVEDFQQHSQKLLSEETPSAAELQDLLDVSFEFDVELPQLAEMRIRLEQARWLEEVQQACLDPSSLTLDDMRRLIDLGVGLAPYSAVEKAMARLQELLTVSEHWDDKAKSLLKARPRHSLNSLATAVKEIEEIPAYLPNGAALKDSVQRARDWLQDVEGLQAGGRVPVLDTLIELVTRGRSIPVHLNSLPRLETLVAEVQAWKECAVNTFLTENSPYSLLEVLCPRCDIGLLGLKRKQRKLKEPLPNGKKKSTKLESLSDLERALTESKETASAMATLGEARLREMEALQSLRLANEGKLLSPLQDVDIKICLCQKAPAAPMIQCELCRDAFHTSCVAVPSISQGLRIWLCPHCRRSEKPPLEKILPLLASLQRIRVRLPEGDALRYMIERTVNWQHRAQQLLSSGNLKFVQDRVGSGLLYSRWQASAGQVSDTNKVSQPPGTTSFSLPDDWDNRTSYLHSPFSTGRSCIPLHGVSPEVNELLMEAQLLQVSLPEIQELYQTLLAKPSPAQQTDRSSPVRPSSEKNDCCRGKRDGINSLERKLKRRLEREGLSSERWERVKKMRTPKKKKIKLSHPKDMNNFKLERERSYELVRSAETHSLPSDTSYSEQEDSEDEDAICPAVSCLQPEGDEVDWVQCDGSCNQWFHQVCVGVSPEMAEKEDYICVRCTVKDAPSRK

The target of the experiment is KDM5B (Homo sapiens (Human), UniProt Q9UGL1). As to the kind of experiment: KDM5B TR-FRET Enzyme Activity Assay. The following applies: LANCE TR-FRET; 5 nM full-length recombinant KDM5B; ten point titration 100000 nM to 5.08 nM. It is filed as biochemical. The procedure:
KDM5B TR-FRET Enzyme Activity Assay
KDM5B enzymatic activity was determined with the LANCE (Lanthanide Chelate Excite) TR-FRET (Time-resolved fluorescence resonance energy transfer) assay. […] To each well of a white Greiner 1536 Lumitrac 1536 well-plate, 50 nL of compound (100 fold dilution in final assay volume of 5 μL) was dispensed, followed by the addition of 4 μL of 1× assay buffer (50 mM Hepes 7.3, 0.5 mM TCEP, 0.005% Brij-35, 0.02% BSA, 50 μM Na-L-Ascorbate and 2 μM AmFe(II)Sulfate) containing 5 nM of Full-length KDM5B enzyme (recombinant protein from baculovirus-transfected Sf21 cells: full-length KDM5B; MW=176.825 kDa). Following a 30 minutes compound and enzyme incubation in a humidified chamber, each reaction was initiated by the addition of 1 μL 1× assay buffer containing […] biotinylated H3K4Me3 peptide, and 500 nM α-ketoglutarate. The final reaction in each well of 5 μL consists of 5 nM KDM5B, 500 nM biotinylated-peptide, and 500 nM α-ketoglutarate. De-methylation reactions were allowed to proceed for 60 minutes. Reactions were immediately quenched by the addition of 5 uL of 2× Lance Detection Buffer (PerkinElmer) with 0.5 mM EDTA and 2 nM of Eu-anti-H3K4Me1-2 antibody, and 30 nM of Streptavidin-conjugated Dylight 650 detection reagents. After 60 minutes incubation with detection reagents, reaction plates were read on a PerkinElmer EnVision plate reader using standard TR-FRET protocol. Briefly, excitation of donor molecules (Eu-chelate-anti-H3K4Me1-2-antibody) with a laser light source at 337 nm produces energy that can be transferred to Dylight-650 acceptor molecules if this donor:acceptor pair is within close proximity. Fluorescence intensity at both 665 nm (acceptor) and 615 nm (donor) are measured and a TR-FRET ratio calculated for each well (acceptor intensity/donor intensity). IC50 values were determined by 4 parameter robust fit of TR-FRET ratio values vs. (Log 10) compound concentrations.
The IC50 is the point on the concentration scale where inhibition reaches its midpoint. `Cc1nn(C)c(C)c1-c1[nH]c2ncnn2c(=O)c1C(C)C` [Example 11-61, 6-(1-methylethyl)-5-(1,3,5-trimethyl-1H-pyrazol-4-yl)[1,2,4]triazolo[1,5-a]pyrimidin-7(4H)-one]: the IC50 came out at 2170 nM.

`COC/C=C/c1[nH]c2ncnn2c(=O)c1C(C)C` [Example 11-23, 5-[(1E)-3-methoxyprop-1-en-1-yl]-6-(1-methylethyl)[1,2,4]triazolo[1,5-a]pyrimidin-7(4H)-one]: the IC50 was 27.7 nM.

Consider `O=c1cc(-c2ccccc2F)[nH]c2ncnn12` [Example 8-28, 5-(2-fluorophenyl)[1,2,4]triazolo[1,5-a]pyrimidin-7(4H)-one], for which the IC50 was 5540 nM.

For `CC(C)c1c(-c2cccc(CO)c2)[nH]c2ncnn2c1=O` [Example 11-59, 5-[3-(hydroxymethyl)phenyl]-6-(1-methylethyl)[1,2,4]triazolo[1,5-a]pyrimidin-7(4H)-one], the IC50 turned out to be 26.5 nM.

As to `CC(C)(C)c1c(-c2cnn(-c3ccccc3)c2)[nH]c2ncnn2c1=O` [Example 11-7, 6-tert-butyl-5-(1-phenyl-1H-pyrazol-4-yl)[1,2,4]triazolo[1,5-a]pyrimidin-7(4H)-one], the 50% inhibitory concentration (IC50) worked out at 772 nM.

On to `CC(C)c1c(-c2cccs2)[nH]c2ncnn2c1=O` [Example 11-147, 6-(1-methylethyl)-5-thiophen-2-yl[1,2,4]triazolo[1,5-a]pyrimidin-7(4H)-one], for which the IC50 stood at 413 nM.

Turning to `CC(C)c1c(-c2ccc3c(c2)OCCN3C)[nH]c2ncnn2c1=O` [Example 11-105, 5-(4-methyl-3,4-dihydro-2H-1,4-benzoxazin-7-yl)-6-(1-methylethyl)[1,2,4]triazolo[1,5-a]pyrimidin-7(4H)-one], the IC50 is 34.2 nM.

As to `CC(C)c1c(C2=CCCCC2)[nH]c2ncnn2c1=O` [Example 11-29, 5-cyclohex-1-en-1-yl-6-(1-methylethyl)[1,2,4]triazolo[1,5-a]pyrimidin-7(4H)-one], the IC50 was 399 nM.

For `CC(C)c1c(-c2ccc(F)cc2)[nH]c2ncnn2c1=O` [Example 11-11, 5-(4-fluorophenyl)-6-(1-methylethyl)[1,2,4]triazolo[1,5-a]pyrimidin-7(4H)-one], the IC50 worked out at 160 nM.

Take `CC(C)c1c(-c2ccc3nccn3c2)[nH]c2ncnn2c1=O` [Example 11-69, 5-imidazo[1,2-a]pyridin-6-yl-6-(1-methylethyl)[1,2,4]triazolo[1,5-a]pyrimidin-7(4H)-one]: the IC50 is 25.8 nM.

As for `O=c1cc(-c2cccc(Cl)c2)[nH]c2ncnn12` [Example 8-29, 5-(3-chlorophenyl)[1,2,4]triazolo[1,5-a]pyrimidin-7(4H)-one], the IC50 is 2980 nM.

Take `CC(C)c1c(-c2ccc(N3CCN(C(C)C)CC3)cc2)[nH]c2ncnn2c1=O` [Example 11-93, 6-(1-methylethyl)-5-{4-[4-(1-methylethyl)piperazin-1-yl]phenyl}[1,2,4]triazolo[1,5-a]pyrimidin-7(4H)-one]: the IC50 was 15.5 nM.

Regarding `CC(C)c1c(-c2ccc(C#N)nc2)[nH]c2ncnn2c1=O` [Example 11-131, 5-[6-(1-methylethyl)-7-oxo-4,7-dihydro[1,2,4]triazolo[1,5-a]pyrimidin-5-yl]pyridine-2-carbonitrile], the IC50 turned out to be 48.7 nM.

On to `CC(C)c1c(-c2ccc(CN3CCCCC3)cc2)[nH]c2ncnn2c1=O` [Example 11-48, 6-(1-methylethyl)-5-[4-(piperidin-1-ylmethyl)phenyl][1,2,4]triazolo[1,5-a]pyrimidin-7(4H)-one], for which the IC50 was found to be 16.8 nM.

As for `CC(C)c1c(-c2cccc(CC#N)c2)[nH]c2ncnn2c1=O` [Example 11-66, {3-[6-(1-methylethyl)-7-oxo-4,7-dihydro[1,2,4]triazolo[1,5-a]pyrimidin-5-yl]phenyl}acetonitrile], the IC50 was 8.93 nM.

Consider `CC(C)c1c(-c2cccc(Oc3ccccc3)c2)[nH]c2ncnn2c1=O` [Example 11-46, 6-(1-methylethyl)-5-(3-phenoxyphenyl)[1,2,4]triazolo[1,5-a]pyrimidin-7(4H)-one], for which the IC50 was 303 nM.

Take `CC(C)c1c(-c2cnn(C)c2)[nH]c2ncnn2c1=O` [Example 8-38, 6-(1-methylethyl)-5-(1-methyl-1H-pyrazol-4-yl)[1,2,4]triazolo[1,5-a]pyrimidin-7(4H)-one]: the IC50 was 16.2 nM.

Turning to `CCc1c(-c2ccccc2)[nH]c2ncnn2c1=O` [Example 8-34, 6-ethyl-5-phenyl[1,2,4]triazolo[1,5-a]pyrimidin-7(4H)-one], the half-maximal inhibitory concentration (IC50) came to 519 nM.

With `CC(C)c1c(-c2cnn(CC3CC3)c2)[nH]c2ncnn2c1=O` [Example 11-14, 5-[1-(cyclopropylmethyl)-1H-pyrazol-4-yl]-6-(1-methylethyl)[1,2,4]triazolo[1,5-a]pyrimidin-7(4H)-one], the IC50 was found to be 5.08 nM.

`CCc1c(C(F)(F)F)[nH]c2ncnn2c1=O` [Example 8-16, 6-ethyl-5-(trifluoromethyl)[1,2,4]triazolo[1,5-a]pyrimidin-7(4H)-one]: the concentration for half-maximal inhibition (IC50) is 1590 nM.

For `CC(C)c1c(-c2ccn(C(C)(C)C)c2)[nH]c2ncnn2c1=O` [Example 11-134, 5-(1-tert-butyl-1H-pyrrol-3-yl)-6-(1-methylethyl)[1,2,4]triazolo[1,5-a]pyrimidin-7(4H)-one], the IC50 was 5.08 nM.

For `CC(C)c1c(-c2cncnc2)[nH]c2ncnn2c1=O` [Example 11-26, 6-(1-methylethyl)-5-pyrimidin-5-yl[1,2,4]triazolo[1,5-a]pyrimidin-7(4H)-one], the IC50 was determined as 103 nM.

On to `CC(C)c1c(-c2cc(C3CC3)cs2)[nH]c2ncnn2c1=O` [Example 11-143, 5-(4-cyclopropylthiophen-2-yl)-6-(1-methylethyl)[1,2,4]triazolo[1,5-a]pyrimidin-7(4H)-one], for which the IC50 amounted to 79.3 nM.

As to `Cn1cc(-c2cc(=O)n3ncnc3[nH]2)cn1` [Example 8-31, 5-(1-methyl-1H-pyrazol-4-yl)[1,2,4]triazolo[1,5-a]pyrimidin-7(4H)-one], the IC50 is 3330 nM.

As to `Cc1c(-c2[nH]c3ncnn3c(=O)c2C(C)C)cnn1-c1ccccc1` [Example 11-114, 6-(1-methylethyl)-5-(5-methyl-1-phenyl-1H-pyrazol-4-yl)[1,2,4]triazolo[1,5-a]pyrimidin-7(4H)-one], the IC50 came to 337 nM.

Regarding `CC(C)c1c(-c2ccc(NS(=O)(=O)C3CC3)cc2)[nH]c2ncnn2c1=O` [Example 11-124, N-{4-[6-(1-methylethyl)-7-oxo-4,7-dihydro[1,2,4]triazolo[1,5-a]pyrimidin-5-yl]phenyl}cyclopropanesulfonamide], the IC50 stood at 8.76 nM.

Turning to `Cn1cc(-c2[nH]c3ncnn3c(=O)c2C(C)(C)C)cn1` [Example 11-6, 6-tert-butyl-5-(1-methyl-1H-pyrazol-4-yl)[1,2,4]triazolo[1,5-a]pyrimidin-7(4H)-one], the IC50 is 1270 nM.

Regarding `O=c1cc(C(F)(F)F)[nH]c2ncnn12` [Example 8-3, 5-(trifluoromethyl)[1,2,4]triazolo[1,5-a]pyrimidin-7(4H)-one], the IC50 is 13400 nM.

`CCc1cc(=O)n2ncnc2[nH]1` [Example 8-9, 5-ethyl-[1,2,4]triazolo[1,5-a]pyrimidin-7(4H)-one]: the IC50 was determined as 21800 nM.

For the molecule `CC(C)c1c(-c2cnn(CCS(C)(=O)=O)c2)[nH]c2ncnn2c1=O` [Example 11-47, 6-(1-methylethyl)-5-{1-[2-(methylsulfonyl)ethyl]-1H-pyrazol-4-yl}[1,2,4]triazolo[1,5-a]pyrimidin-7(4H)-one], the IC50 was determined as 6.93 nM.

On to `CC(C)c1c(-c2cc(C3CCC3)cs2)[nH]c2ncnn2c1=O` [Example 11-142, 5-(4-cyclobutylthiophen-2-yl)-6-(1-methylethyl)[1,2,4]triazolo[1,5-a]pyrimidin-7(4H)-one], for which the half-inhibitory concentration (IC50) turned out to be 112 nM.

Consider `CC(C)c1c(-c2cccc(CN3CCCCC3)c2)[nH]c2ncnn2c1=O` [Example 11-49, 6-(1-methylethyl)-5-[3-(piperidin-1-ylmethyl)phenyl][1,2,4]triazolo[1,5-a]pyrimidin-7(4H)-one], for which the IC50 turned out to be 33.2 nM.

On to `CC(C)c1c(-c2csc(-n3cccc3)n2)[nH]c2ncnn2c1=O` [Example 11-140, 6-(1-methylethyl)-5-[2-(1H-pyrrol-1-yl)-1,3-thiazol-4-yl][1,2,4]triazolo[1,5-a]pyrimidin-7(4H)-one], for which the IC50 was found to be 124 nM.

For the molecule `CC(C)c1c(-c2cnn(Cc3cccs3)c2)[nH]c2ncnn2c1=O` [Example 11-110, 6-(1-methylethyl)-5-[1-(thiophen-2-ylmethyl)-1H-pyrazol-4-yl][1,2,4]triazolo[1,5-a]pyrimidin-7(4H)-one], the IC50 stood at 6.7 nM.

For `CC(C)Cn1cc(-c2[nH]c3ncnn3c(=O)c2C(C)C)cn1` [Example 11-12, 6-(1-methylethyl)-5-[1-(2-methylpropyl)-1H-pyrazol-4-yl][1,2,4]triazolo[1,5-a]pyrimidin-7(4H)-one], the IC50 came to 5.08 nM.
